Measurements from PMC8952214 (Pharmaceuticals, 2022).
Read-outs that look alike come from different tables or passages of the source.

Assays:
[1] = system: A/Parma/24/09 H1N1 (Brisbane-like) oseltamivir-resistant virus; format: biochemical, Influenza A virus; settings: Table 2; turkey erythrocytes; dash = not active
[2] = system: A/Parma/24/09 H1N1 (Brisbane-like) oseltamivir-resistant virus; assay: microbe, parasite or virus in culture; format: cell-based, Influenza A virus; settings: for EC50: Influenza A virus, H1N1, MDCK, 48 h, read-out: EC50 A/Parma H1N1
[3] = system: A/Parma/24/09 H1N1 (Brisbane-like) oseltamivir-resistant virus; settings: Table 1; turkey erythrocytes; cited from earlier work
[4] = system: A/Parma/24/09 H1N1 (Brisbane-like) oseltamivir-resistant virus; settings: MDCK cells, c.p.e. by neutral red, 48 h; cited from earlier work

Structure (SMILES): Cc1ccc(S(=O)(=O)Nc2ccc(-n3ccnc3)c(Cl)c2)cc1 [Compound 28]
- HI Titer A/Parma H1N1 [1]: 0.047 pM

Structure (SMILES): N#Cc1ccc(NC(=O)COC(=O)c2ccccn2)cc1 [Compound 7]
- HI Titer A/Parma H1N1 [1]: 0.012 pM
- SI (selectivity index) = CC50/EC50, A/Parma H1N1 [2]: 0.34 × 10^2
- EC50 [2]: 900 nM

Structure (SMILES): Cc1ccc(F)cc1NC(=O)COC(=O)c1ccc2ccccc2n1 [Compound 4]
- HI Titer A/Parma H1N1 [3]: 0.48 µM
- EC50 [4]: 125 nM

Structure (SMILES): O=C(COC(=O)c1ccc2ccccc2n1)Nc1ccccc1-c1ccccc1 [Compound 12]
- HI Titer A/Parma H1N1 [1]: 0.012 pM

Structure (SMILES): O=C(OCC(=O)N1CCc2ccccc21)c1ccccn1 [Compound 8]
- HI Titer A/Parma H1N1 [1]: 0.012 pM

Structure (SMILES): O=C(COC(=O)c1ccc2ccccc2n1)Nc1ccc2c(c1)OCCO2 [Compound 11]
- HI Titer A/Parma H1N1 [1]: 0.012 pM

Structure (SMILES): O=C(COC(=O)c1ccccn1)Nc1ccc2c(c1)CCC2 [Compound 24]
- HI Titer A/Parma H1N1 [1]: 0.047 pM

Structure (SMILES): CN(C(=O)COC(=O)c1ccc2ccccc2n1)c1ccccc1 [Compound 9]
- HI Titer A/Parma H1N1 [1]: 0.012 pM

Structure (SMILES): O=C1CCCN1c1ccc(CNS(=O)(=O)c2ccc(F)cc2)cc1 [Compound 23]
- HI Titer A/Parma H1N1 [1]: 0.012 pM

Structure (SMILES): Fc1ccc(CNc2ncnc3[nH]cnc23)cc1 [Compound 2]
- HI Titer A/Parma H1N1 [3]: 0.48 µM

Structure (SMILES): CC(NS(=O)(=O)c1ccccc1)c1ccc(-c2ccccc2)cc1 (stereo not shown) [Compound 17]
- HI Titer A/Parma H1N1 [1]: 0.012 pM

Structure (SMILES): Cc1ccc(S(=O)(=O)NC(C)c2ccc(-n3ccnc3)cc2)cc1C (stereo not shown) [Compound 1]
- HI Titer A/Parma H1N1 [3]: 0.48 µM
- EC50 [4]: 125 nM

Structure (SMILES): O=C(CC1(O)C(=O)Nc2ccccc21)c1ccccn1 (stereo not shown) [Compound 6]
- HI Titer A/Parma H1N1 [1]: 0.012 pM
- SI (selectivity index) = CC50/EC50, A/Parma H1N1 [2]: 0.34 × 10^2
- EC50 [2]: 900 nM

Structure (SMILES): CCc1ccc(NC(=O)C(C)OC(=O)c2ccc3ccccc3n2)cc1 (stereo not shown) [Compound 10]
- HI Titer A/Parma H1N1 [1]: 0.012 pM

Structure (SMILES): O=C(OCC(=O)N(c1ccccc1)C1CCCCC1)c1ccc2ccccc2n1 [Compound 14]
- HI Titer A/Parma H1N1 [1]: 0.012 pM

Structure (SMILES): Cc1nc(-c2cccc(NC(=O)COC(=O)c3ccc4ccccc4n3)c2)cs1 [Compound 26]
- HI Titer A/Parma H1N1 [1]: 0.047 pM

Structure (SMILES): O=C(COC(=O)c1ccccn1)Nc1ccc(-c2ccccc2)cc1 [Compound 20]
- HI Titer A/Parma H1N1 [1]: 0.012 pM

Structure (SMILES): COc1ccc(S(=O)(=O)NCc2ccc(-n3ccnc3)cc2)cc1F [Compound 25]
- HI Titer A/Parma H1N1 [1]: 0.012 pM
- SI (selectivity index) = CC50/EC50, A/Parma H1N1 [2]: 0.44 × 10^2
- EC50 [2]: 700 nM

Structure (SMILES): Nc1cc(F)ccc1C(=O)OCC(=O)Nc1ccccc1 [Compound 18]
- HI Titer A/Parma H1N1 [1]: 0.012 pM

Structure (SMILES): COc1ccc(C(=O)Nc2cccc(S(=O)(=O)NCc3ccco3)c2)cc1 [Compound 3]
- HI Titer A/Parma H1N1 [3]: 0.48 µM

Structure (SMILES): Cc1ccc2nc(CNc3ccc(C)c(Cl)c3)cc(=O)n2c1 [Compound 5]
- HI Titer A/Parma H1N1 [3]: 0.48 µM

Structure (SMILES): COc1ccc(NC(=O)COC(=O)c2ccc3c(c2)CCC(=O)N3)cc1 [Compound 19]
- HI Titer A/Parma H1N1 [1]: 0.012 pM

Structure (SMILES): CC(=O)Nc1ccc(S(=O)(=O)NC(C)c2ccc(-n3ccnc3)cc2)cc1 (stereo not shown) [Compound 16]
- HI Titer A/Parma H1N1 [1]: 0.012 pM

Structure (SMILES): Cc1ccc(NC(=O)COC(=O)c2ccccn2)cc1F [Compound 13]
- HI Titer A/Parma H1N1 [1]: 0.012 pM
- SI (selectivity index) = CC50/EC50, A/Parma H1N1 [2]: 0.44 × 10^2
- EC50 [2]: 700 nM
